Laboratory results taken from the NIST ThermoML archive (doi:10.1016/j.tca.2013.09.032).
Numbers after ± are expanded uncertainties.

Details: 101.33 kPa, Crystal, Vacuum adiabatic calorimetry

Cc1cc2nc3c(=O)[nH]c(=O)nc-3n(C[C@H](O)[C@H](O)[C@H](O)CO)c2cc1C [riboflavin]
Details	molar entropy [J/K/mol]
1 K	0.0261 ± 0.015
2 K	0.105 ± 0.017
3 K	0.235 ± 0.019
4 K	0.418 ± 0.021
5 K	0.653 ± 0.024
6 K	0.941 ± 0.028
7 K	1.28 ± 0.032
8 K	1.66 ± 0.036
9 K	2.1 ± 0.041
10 K	2.58 ± 0.046
15 K	5.898 ± 0.076
20 K	10.48 ± 0.11
25 K	15.97 ± 0.13
30 K	22.23 ± 0.13
35 K	29.06 ± 0.15
40 K	36.3 ± 0.17
45 K	43.84 ± 0.19
50 K	51.59 ± 0.22
60 K	67.55 ± 0.26
70 K	83.87 ± 0.31
80 K	100.3 ± 0.4
90 K	116.8 ± 0.5
100 K	133.4 ± 0.5
110 K	149.9 ± 0.5
120 K	166.2 ± 0.6
130 K	182.4 ± 0.6
140 K	198.4 ± 0.6
150 K	214.3 ± 0.6
160 K	230.1 ± 0.6
170 K	245.7 ± 0.7
180 K	261.3 ± 0.7
190 K	276.8 ± 0.7
200 K	292.2 ± 0.7
210 K	307.5 ± 0.8
220 K	322.7 ± 0.8
230 K	337.9 ± 0.8
240 K	353 ± 0.8
250 K	368 ± 0.9
260 K	383 ± 0.9
270 K	397.9 ± 0.9
273.15 K	402.6 ± 0.9
280 K	412.8 ± 0.9
290 K	427.7 ± 0.9
298.15 K	439.8 ± 1
310 K	457.3 ± 1
320 K	472.1 ± 1
322 K	475 ± 1
